Values of other authors, collected in patent US20210137911A1, “NOVEL CHRONOTHERAPY BASED ON CIRCADIAN RHYTHMS” (THE TRUSTEES OF THE UNIVERSITY OF PENNSYLVANIA, priority 2014, published 2021).
Like-named read-outs stand apart in the source and are kept apart here. Residues, ends and D or L forms follow the SMILES beside them.

Conditions: cited from earlier work
[1] = half-life of top selling therapeutic compounds (Table 1)

SMILES | ½ Life [1] [h] | further results
CCCCC(C)(O)C/C=C/[C@H]1[C@H](O)CC(=O)[C@@H]1CCCCCCC(=O)OC (mixture of isomers) [Misoprostol] |  | ½ Life (half-life of therapeutic compound as listed in Table 1): 0.33 h
N[C@@H]1C[C@H]1c1ccccc1 (racemic) [Tranylcypromine] |  | ½ Life (in vivo): 1.5 h
C[C@]12CC[C@H](O)CC1=CC[C@@H]1[C@@H]2CC[C@]2(C)C(c3cccnc3)=CC[C@@H]12 [Abiraterone] | 5 | 
C[C@H]1O[C@H](O[C@H]2[C@H](O)[C@@H](O)[C@@H](O[C@H]3[C@H](O)[C@@H](O)C(O)O[C@@H]3CO)O[C@@H]2CO)[C@H](O)[C@@H](O)[C@@H]1N[C@H]1C=C(CO)[C@@H](O)[C@H](O)[C@H]1O (some centres unmarked) [Acarbose] | 2 | 
CCCC(=O)Nc1ccc(OCC(O)CNC(C)C)c(C(C)=O)c1 (centres unmarked) [Acebutolol] | 3 | 
CC(=O)c1ccc2c(c1)N(CCCN(C)C)c1ccccc1S2 [Acepromazine] | 3 | 
CC(=O)Nc1ccc(O)cc1 [Acetaminophen] | 1 | 
CC(=O)Nc1nnc(S(N)(=O)=O)s1 [Acetazolamide] | 3 | 
CC(=O)c1ccc(S(=O)(=O)NC(=O)NC2CCCCC2)cc1 [Acetohexamide] | 1.3 | 
CC(=O)N[C@@H](CS)C(=O)O [Acetylcysteine] | 5.6 | 
O=C(O[C@H]1C[N+]2(CCCOc3ccccc3)CCC1CC2)C(O)(c1cccs1)c1cccs1 [Aclidinium] | 2.4 | 
CN(C)Cc1nnc2n1-c1ccc(Cl)cc1C(c1ccccc1)=NC2 [Adinazolam] |  | ½ Life (in vivo): 3 h
COc1ccc2cccc(CCNC(C)=O)c2c1 [Agomelatine] | 2 | 
Oc1ncnc2[nH]ncc12 [Allopurinol] | 1 | 
CN(C)CCc1c[nH]c2ccc(CS(=O)(=O)N3CCCC3)cc12 [Almotriptan] | 3 | 
C=CCc1ccccc1OCC(O)CNC(C)C (centres unmarked) [Alprenolol] | 2 | 
NCCCNCCSP(=O)(O)O [Amifostine] | 0.133 | 
NCCCCCC(=O)O [Aminocaproic Acid] | 2 | 
NCC(=O)CCC(=O)O [Aminolevulinic acid] | 0.7 | 
CC(C)c1ccc2oc3nc(N)c(C(=O)O)cc3c(=O)c2c1 [Amlexanox] | 3.5 | 
Nc1cc(-c2ccncc2)c[nH]c1=O [Amrinone] | 5 | 
O=C1CN2Cc3c(ccc(Cl)c3Cl)N=C2N1 [Anagrelide] | 0.5 | 
CN1CCc2cccc3c2[C@H]1Cc1ccc(O)c(O)c1-3 [Apomorphine] | 0.66 | 
CC(C)C(=O)O[C@@H](OC(=O)NC[C@H](CC(=O)O)c1ccc(Cl)cc1)C(C)C [Arbaclofen Placarbil] |  | ½ Life (in vivo): 0.1 h
Oc1ccc(CCCCNC[C@H](O)c2ccc(O)c(O)c2)cc1 [Arbutamine] |  | ½ Life (in vivo): 0.133 h
COC(=O)[C@H](Cc1ccccc1)NC(=O)[C@@H](N)CC(=O)O [Aspartame] (H-Asp-Phe-OMe) | 4.3 | 
CNCC[C@@H](Oc1ccccc1C)c1ccccc1 [Atomoxetine] | 5 | 

SMILES | ½ Life [1] [h] | further results
COc1ccc(CC2c3cc(OC)c(OC)cc3CC[N+]2(C)CCC(=O)OCCCCCOC(=O)CC[N+]2(C)CCc3cc(OC)c(OC)cc3C2Cc2ccc(OC)c(OC)c2)cc1OC (centres unmarked) [Atracurium] | 0.33 | 
COc1ccc(CN=c2[nH]c(N3CCC[C@H]3CO)ncc2C(=O)NCc2ncccn2)cc1Cl [Avanafil] | 5.36 | 
CNC(=O)c1ccccc1Sc1ccc2c(/C=C/c3ccccn3)n[nH]c2c1 [Axitinib] | 2.5 | 
NCC(CC(=O)O)c1ccc(Cl)cc1 (centres unmarked) [Baclofen] | 2.5 | 
C[C@H]1C[C@H]2[C@@H]3CCC4=CC(=O)C=C[C@]4(C)[C@@]3(Cl)[C@@H](O)C[C@]2(C)[C@@]1(O)C(=O)CO [Beclomethasone] |  | ½ Life (in vivo): 2.8 h
CCCCNc1ccc(C(=O)OCCOCCOCCOCCOCCOCCOCCOCCOCCOC)cc1 [Benzonatate] | 3 | 
CCN(CC)C(=O)C1CN2CCc3cc(OC)c(OC)cc3C2CC1OC(C)=O (centres unmarked) [Benzquinamide] | 1 | 
CNCCc1ccccn1 [Betahistine] | 3 | 
C[C@H]1C[C@H]2[C@@H]3CCC4=CC(=O)C=C[C@]4(C)[C@@]3(F)[C@@H](O)C[C@]2(C)[C@@]1(O)C(=O)CO [Betamethasone] | 5.6 | 
CC(C)(Oc1ccc(CCNC(=O)c2ccc(Cl)cc2)cc1)C(=O)O [Bezafibrate, reference compound] | 1 | 
CCNC(=O)CCC/C=C\C[C@@H]1[C@@H](/C=C/[C@@H](O)CCc2ccccc2)[C@H](O)C[C@@H]1O [Bimatoprost] | 0.75 | 
Nc1nc(N/N=C/C2CCCCC2)nc2c1ncn2[C@@H]1O[C@H](CO)[C@@H](O)[C@H]1O [Binodenoson] | 0.166 | 
COc1ccccc1Oc1c(NS(=O)(=O)c2ccc(C(C)(C)C)cc2)nc(-c2ncccn2)nc1OCCO [Bosentan] | 5 | 
Brc1c(NC2=NCCN2)ccc2nccnc12 [Brimonidine] | 2 | 
CC(C)C[C@H]1C(=O)N2CCC[C@H]2[C@]2(O)O[C@](NC(=O)[C@@H]3C=C4c5cccc6[nH]c(Br)c(c56)C[C@H]4N(C)C3)(C(C)C)C(=O)N12 [Bromocriptine] | 2 | 
CCCC1O[C@@H]2C[C@H]3[C@@H]4CCC5=CC(=O)C=C[C@]5(C)[C@H]4[C@@H](O)C[C@]3(C)[C@]2(C(=O)CO)O1 (some centres unmarked) [Budesonide] | 2 | 
CCCCNc1cc(C(=O)O)cc(S(N)(=O)=O)c1Oc1ccccc1 [Bumetanide] | 1 | 
CCCCN1CCCCC1C(=O)Nc1c(C)cccc1C (centres unmarked) [Bupivacaine] | 2.7 | 
Cc1ccc(Cl)c(OCC(O)CNC(C)(C)C)c1 (centres unmarked) [Bupranolol] | 2 | 
CO[C@H]1C(=O)[C@]2(C)[C@@H](OC)C[C@H]3OC[C@@]3(OC(C)=O)[C@H]2[C@H](OC(=O)c2ccccc2)[C@]2(O)C[C@H](OC(=O)[C@H](O)[C@@H](NC(=O)OC(C)(C)C)c3ccccc3)C(C)=C1C2(C)C [Cabazitaxel] | 4 | 
Cn1c(=O)c2c(ncn2C)n(C)c1=O [Caffeine] |  | ½ Life (in vivo): 3 h
C=C1/C(=C\C=C2/CCC[C@]3(C)[C@@H]([C@H](C)CCCC(C)(C)O)CC[C@@H]23)C[C@@H](O)C[C@@H]1O [Calcitriol] | 5 | 
CCCCCOC(=O)Nc1nc(=O)n([C@@H]2O[C@H](C)[C@@H](O)[C@H]2O)cc1F [Capecitabine] | 0.75 | 
C[C@@](Cc1ccc(O)c(O)c1)(NN)C(=O)O [Carbidopa] | 1 | 
O=NN(CCCl)C(=O)NCCCl [Carmustine] |  | ½ Life (in vivo): 0.25 h
COCc1c(C(C)C)nc(C(C)C)c(/C=C/[C@@H](O)C[C@@H](O)CC(=O)O)c1-c1ccc(F)cc1 [Cerivastatin, reference compound] | 2 | half-life (see Table 1): less than three
CC1OC2(CS1)CN1CCC2CC1 (centres unmarked) [Cevimeline] | 5 | 

SMILES | ½ Life [1] [h] | further results
Cc1cc(C2CCCCC2)n(O)c(=O)c1 [Ciclopirox] | 1.7 | 
CCOc1cc(N)c([N+](=O)[O-])cc1C(=O)NC1CCN(CC2CC=CCC2)CC1 (centres unmarked) [Cinitapride] | 3 | 
COc1ccc(C[C@@H]2c3cc(OC)c(OC)cc3CC[N@+]2(C)CCC(=O)OCCCCCOC(=O)CC[N@@+]2(C)CCc3cc(OC)c(OC)cc3[C@H]2Cc2ccc(OC)c(OC)c2)cc1OC [Cisatracurium Besylate] | 0.366 | 
Nc1nc(Cl)nc2c1ncn2[C@H]1C[C@H](O)[C@@H](CO)O1 [Cladribine] | 5.4 | 
Nc1nc(Cl)nc2c1ncn2[C@@H]1O[C@H](CO)[C@@H](O)[C@@H]1F [Clofarabine] | 5.2 | 
O=C(O)C1N=C(c2ccccc2)c2cc(Cl)ccc2NC1=O (centres unmarked) [Clorazepate] | 2 | 
CCc1cc2c(s1)N(C)C(=O)CN=C2c1ccccc1Cl [Clotiazepam] | 4 | 
Clc1ccccc1C(c1ccccc1)(c1ccccc1)n1ccnc1 [Clotrimazole] | 2 | 
COC(=O)[C@H]1[C@@H](OC(=O)c2ccccc2)C[C@@H]2CC[C@H]1N2C [Cocaine] | 1 | 
COc1ccc2c3c1O[C@H]1[C@@H](O)C=C[C@H]4[C@@H](C2)N(C)CC[C@@]341 [Codeine] |  | ½ Life (in vivo): 3 h
COc1cc2c(c(OC)c1OC)-c1ccc(OC)c(=O)cc1[C@@H](NC(C)=O)CC2 [Colchicine] | 1 | 
CN(CC(=O)O)C(=N)N [Creatine] | 3 | 
Nc1ccn([C@@H]2O[C@H](CO)[C@@H](O)[C@@H]2O)c(=O)n1 [Cytarabine] |  | ½ Life (in vivo): 0.166 h
CN(C)/N=N/c1[nH]cnc1C(N)=O [Dacarbazine] | 5 | 
Nc1ccncc1 [Dalfampridine] |  | ½ Life (in vivo): 3.5 h
O=C1CN(/N=C/c2ccc(-c3ccc([N+](=O)[O-])cc3)o2)C(O)=N1 [Dantrolene] | 4 | 
CN(C)[C@@H](CCOc1cccc2ccccc12)c1ccccc1 [Dapoxetine] | 1 | 
Cc1nc(Nc2ncc(C(=O)Nc3c(C)cccc3Cl)s2)cc(N2CCN(CCO)CC2)n1 [Dasatinib] | 3 | 
Nc1ncn([C@H]2C[C@H](O)[C@@H](CO)O2)c(=O)n1 [Decitabine] | 0.51 | 
NC(=O)CC[C@@H]1NC(=O)[C@H](Cc2ccccc2)NC(=O)[C@H](Cc2ccc(O)cc2)NC(=O)CCSSC[C@@H](C(=O)N2CCC[C@H]2C(=O)N[C@H](CCCN=C(N)N)C(=O)NCC(N)=O)NC(=O)[C@H](CC(N)=O)NC1=O [Desmopressin] |  | ½ Life (in vivo): 1 h
Cc1cccc([C@H](C)c2cnc[nH]2)c1C [Dexmedetomidine] | 2 | 
COC(=O)[C@H](c1ccccc1)[C@H]1CCCCN1 [Dexmethylphenidate] |  | ½ Life (in vivo): 2 h
C[C@@H](CN1CC(=O)NC(=O)C1)N1CC(=O)NC(=O)C1 [Dexrazoxane] | 2.5 | 
COc1ccc2c(c1)[C@]13CCCC[C@@H]1[C@H](C2)N(C)CC3 [Dextromethorphan] | 3 | 
C[C@@]12CCCCC[C@@H](Cc3ccc(O)cc31)[C@@H]2N [Dezocine] |  | ½ Life (in vivo): 2.2 h
